Measured values: patent publication US20240108611A1, “COMPOSITION FOR PREVENTING OR TREATING METABOLIC DISEASES, CONTAINING TORSEMIDE AND CROMOLYN” (ONCOCROSS CO., LTD., priority 2021, published 2024)

Columns and labels:
[1] = system: nonalcoholic steatohepatitis (NASH) animal model; assay: Body weight change in nonalcoholic steatohepatitis (NASH) animal model, high fat diet; format: in vivo, ICR mice; conditions: high-fat diet mice; 10 mg/kg each drug i.p. three times a week for 6 weeks
NASH animal model = assay: Triglycerides in liver tissue by Oil Red O staining in NASH animal model; conditions: HFD mice after 13 weeks of diet and drug administration

## O=C(O)c1cc(=O)c2c(OCC(O)COc3cccc4oc(C(=O)O)cc(=O)c34)cccc2o1 [cromolyn]
[1]
  change in body weight compared to high-fat diet control group (HFD PBS): no significant change
NASH animal model
  triglycerides in liver tissue (Oil Red O staining) versus HFD PBS group: relatively decreased
